Consider eleven molecules from ChEMBL document CHEMBL1201862, “PubChem BioAssay data set” (2004).

Some test systems named below: ACHN; EKVX; HCC 2998; HCT-15; KM-20L2; KM12; M14; NCI-H23; NCI-H460; OVCAR-4; OVCAR-5; RPMI-8226; SF-295; SNB-19; SR; U-251; UACC-257; HL-60; MDA-MB-231; T47D.
Holding throughout (experiment): inhibition of tumour cell growth, NCI panel, 48 h

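The compound was tested at five concentrations on cells cultured in 96-well plates, with a 48-hour exposure period. GI50 marks 50% less growth.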 Activity calls are given as the source filed them. Cut-off read from the data, not from the text of the source: active = GI50 up to about 1.1 µM and inactive = higher.

Regarding `O=c1c2ccccc2c(=O)n2n1-c1cccc(c1)CSSCc1cccc-2c1`, the GI50 in the test with ACHN is > 10 µM (inactive); in the test with EKVX, > 10 µM (inactive); in the test on HCC 2998, > 10 µM (inactive); in the test on HCT-15 it was more than 10 µM; with KM-20L2 it was > 100 µM (inactive); in the test with KM12, > 10 µM (inactive). The GI50 with M14, in the test with NCI-H23, with NCI-H460, with OVCAR-4, in the test on OVCAR-5 and in the test with RPMI-8226 was > 10 µM (inactive) each time. The GI50 in the test on SF-295 was 43.4 µM (inactive); with SNB-19 it was > 10 µM (inactive); in the test on SR, > 10 µM (inactive); in the test on U-251, 92 µM (inactive); in the test with UACC-257, > 10 µM (inactive).
For `CC(=O)NNc1nc(C)c(C(=O)/C=C/c2ccccc2Cl)s1`, the GI50 was > 100 µM (inactive) in the test with ACHN; > 100 µM (inactive) in the test with EKVX; > 100 µM (inactive) in the test on HCC 2998; more than 100 µM with HCT-15; > 100 µM (inactive) in the test on HL-60; > 100 µM (inactive) in the test with KM-20L2. Moreover, the GI50 with KM12, with NCI-H23, in the test on NCI-H460, in the test with OVCAR-5, in the test with RPMI-8226 and in the test with SF-295 was > 100 µM (inactive) throughout. Also, the GI50 with SNB-19, with U-251 and in the test on UACC-257 was > 100 µM (inactive) throughout.
Consider `O/N=C1\CCc2nonc2\C1=N/Nc1ccccc1`, for which the GI50 was 43.7 µM (inactive) in the test with ACHN; 39.9 µM (inactive) in the test on EKVX; > 100 µM (inactive) in the test on HCC 2998; more than 100 µM in the test on HCT-15; > 100 µM (inactive) in the test on HL-60; > 100 µM (inactive) in the test on KM12. Further, the GI50 in the test with M14, in the test with MDA-MB-231, with NCI-H23, with NCI-H460, with OVCAR-4 and in the test with OVCAR-5 was > 100 µM (inactive) in each case. For the same molecule, the GI50 with RPMI-8226 is > 100 µM (inactive); with SF-295, > 100 µM (inactive); with SNB-19 it was > 100 µM (inactive); in the test on SR it was > 100 µM (inactive); in the test on T47D it was 57.3 µM (inactive); in the test with U-251 it was > 100 µM (inactive). The GI50 with UACC-257 is > 100 µM (inactive).
In the case of `CCOC(=O)C(NC(=O)c1ccccc1)(N1CCN(c2cc3c(cc2F)c(=O)c(C(=O)O)cn3CC)CC1)C(F)(F)F` (stereo not drawn), the GI50 in the test on ACHN was 33.1 µM (inactive); in the test with EKVX it was 17.1 µM (inactive); in the test on HCC 2998 it was 52.2 µM (inactive); with HCT-15, 24.4 µM; with HL-60, 20 µM (inactive); in the test with KM12, 25.9 µM (inactive). Further, the GI50 was 51.1 µM (inactive) in the test with M14; 23.6 µM (inactive) in the test with MDA-MB-231; 32.4 µM (inactive) with NCI-H23; 32.1 µM (inactive) with NCI-H460; 33.1 µM (inactive) in the test with OVCAR-4; 21.1 µM (inactive) in the test with OVCAR-5. Further, the GI50 in the test with RPMI-8226 was 25.2 µM (inactive); in the test with SF-295 it was 37.5 µM (inactive); in the test on SNB-19, 29.9 µM (inactive); with SR it was 27.2 µM (inactive); with T47D, 23.9 µM (inactive); in the test with U-251 it was 41.2 µM (inactive). The GI50 in the test with UACC-257 is 12.9 µM (inactive).
On to `C=C1C(=O)CCC1C(=O)O` (stereo not drawn), for which the GI50 in the test with ACHN was > 100 µM (inactive); in the test with EKVX, > 100 µM (inactive); in the test on HCC 2998, > 100 µM (inactive); with HCT-15, more than 100 µM; in the test with HL-60, > 100 µM (inactive); in the test with KM12, > 100 µM (inactive). For the same molecule, the GI50 in the test on M14, in the test with MDA-MB-231, in the test with NCI-H23, with NCI-H460, in the test on OVCAR-4 and in the test on OVCAR-5 was > 100 µM (inactive) each time. The GI50 with RPMI-8226, in the test with SF-295, with SNB-19, with SR, with T47D and with U-251 was > 100 µM (inactive) throughout. Further, the GI50 in the test with UACC-257 is 61.8 µM (inactive).
As for `O=C(CCCN1CC=C(n2c(=O)[nH]c3ccccc32)CC1)c1cccs1`, the GI50 in the test on ACHN is > 100 µM (inactive); with EKVX, > 100 µM (inactive); with HCC 2998, > 100 µM (inactive); with HCT-15, more than 100 µM; in the test on HL-60, > 100 µM (inactive); in the test on KM12, > 100 µM (inactive). Moreover, the GI50 is > 100 µM (inactive) in the test on M14; > 100 µM (inactive) in the test with MDA-MB-231; > 100 µM (inactive) in the test with NCI-H23; 63.5 µM (inactive) in the test on NCI-H460; > 100 µM (inactive) with OVCAR-4; > 100 µM (inactive) in the test on OVCAR-5. In addition, the GI50 in the test on RPMI-8226, in the test on SF-295, in the test with SNB-19, in the test with SR, in the test on T47D and with U-251 was > 100 µM (inactive) each time. Also, the GI50 in the test with UACC-257 was > 100 µM (inactive).
Regarding `COc1ccc(-c2c3ccccc3c(-c3ccc(OCCBr)cc3)c3ccccc23)cc1`, the GI50 with ACHN is > 100 µM (inactive); in the test on EKVX it was > 100 µM (inactive); in the test with HCC 2998 it was > 100 µM (inactive); in the test with HCT-15, more than 100 µM; in the test with HL-60, > 100 µM (inactive); in the test on KM12 it was > 100 µM (inactive). The GI50 in the test with M14, in the test with MDA-MB-231, in the test on NCI-H23, in the test on NCI-H460, with OVCAR-4 and with OVCAR-5 was > 100 µM (inactive) each time. The GI50 in the test on RPMI-8226, with SF-295, in the test with SNB-19, in the test on SR, in the test on T47D and with U-251 was > 100 µM (inactive) throughout. In addition, the GI50 with UACC-257 is > 100 µM (inactive).
With `COc1cc2c(cc1OC)C(=O)/C(=C/c1ccc([N+](=O)[O-])cc1)CC2`, the GI50 was > 10 µM (inactive) with ACHN; > 10 µM (inactive) in the test with EKVX; > 10 µM (inactive) in the test on HCC 2998; more than 10 µM in the test with HCT-15; > 10 µM (inactive) in the test with HL-60; > 10 µM (inactive) with KM12. For the same molecule, the GI50 in the test on M14, with MDA-MB-231, in the test with NCI-H23, in the test with NCI-H460, in the test on OVCAR-4 and in the test with OVCAR-5 was > 10 µM (inactive) each time. Further, the GI50 in the test with RPMI-8226, in the test on SF-295, with SNB-19, in the test on SR, in the test with T47D and with U-251 was > 10 µM (inactive) throughout. The GI50 in the test on UACC-257 is > 10 µM (inactive).
On to `Cc1ccccc1Nc1nc2ccccc2nc1NS(=O)(=O)c1ccccc1`, for which the GI50 is > 100 µM (inactive) in the test on ACHN; > 100 µM (inactive) with EKVX; > 100 µM (inactive) with HCC 2998; more than 100 µM in the test on HCT-15; > 100 µM (inactive) in the test on HL-60; > 100 µM (inactive) in the test with KM12. In addition, the GI50 was > 100 µM (inactive) in the test with M14; > 100 µM (inactive) with MDA-MB-231; 43.1 µM (inactive) in the test on NCI-H23; > 100 µM (inactive) in the test on NCI-H460; 38.5 µM (inactive) with OVCAR-4; > 100 µM (inactive) in the test with OVCAR-5. Besides, the GI50 in the test with RPMI-8226 was > 100 µM (inactive); with SF-295 it was 67.1 µM (inactive); with SNB-19, 96.8 µM (inactive); in the test on SR, > 100 µM (inactive); in the test on T47D, > 100 µM (inactive); with U-251, 67.9 µM (inactive). The GI50 in the test with UACC-257 is > 100 µM (inactive).
Turning to `O=[N+]([O-])c1ccc2[nH]c(=S)[nH]c(=S)c2c1`, the GI50 in the test on ACHN is > 100 µM (inactive); in the test with EKVX, > 100 µM (inactive); with HCC 2998, > 100 µM (inactive); in the test with HCT-15, more than 100 µM; in the test with HL-60, > 100 µM (inactive); with KM12, > 100 µM (inactive). The GI50 with M14, in the test with MDA-MB-231, in the test with NCI-H23, in the test with NCI-H460, with OVCAR-4 and in the test with OVCAR-5 was > 100 µM (inactive) each time. The GI50 in the test with RPMI-8226, with SF-295, in the test with SNB-19, with SR, with T47D and in the test with U-251 was > 100 µM (inactive) in each case. In the test on UACC-257, the GI50 was > 100 µM (inactive).
With `C=CCSSCC=C`, the GI50 in the test with ACHN was > 73.6 µM (inactive); in the test with EKVX it was > 100 µM (inactive); in the test on HCC 2998 it was > 100 µM (inactive); in the test with HCT-15, 38.5 µM; with HL-60, 3.49 µM (inactive); in the test on KM12 it was 68.9 µM (inactive). Besides, the GI50 in the test on M14 is 31.8 µM (inactive); in the test on MDA-MB-231 it was 16.8 µM (inactive); in the test with NCI-H23 it was > 58.3 µM (inactive); with NCI-H460, 32.4 µM (inactive); with OVCAR-4, > 76.6 µM (inactive); with OVCAR-5, 51.6 µM (inactive). For the same molecule, the GI50 was 4.05 µM (inactive) with RPMI-8226; 55.5 µM (inactive) with SF-295; > 100 µM (inactive) in the test with SNB-19; 4.09 µM (inactive) with SR; > 100 µM (inactive) in the test on T47D; 61.4 µM (inactive) in the test on U-251. Further, in the test on UACC-257, the GI50 is 32.8 µM (inactive).
